ChEMBL document CHEMBL1201862, “PubChem BioAssay data set” (2004)
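Tested at 5 concentrations; 48 h exposure; 96-well plates; endpoints linearly interpolated, else capped at highest concentration. GI50: concentration for 50% inhibition of growth.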 The source made the active and inactive calls. No stated cut-off is given here; in the data, active = GI50 up to about 1.1 µM and inactive = higher.

Experiments:
Assay in all cases: growth of human tumour cells (NCI), 48 h
LOX IMVI = tested on: LOX IMVI
CCRF-CEM = tested on: CCRF-CEM
U-251 = tested on: U-251
IGROV-1 = tested on: IGROV-1
SF-295 = tested on: SF-295
SNB-75 = tested on: SNB-75
UACC-62 = tested on: UACC-62
HCT-116 = tested on: HCT-116
MOLT-4 = tested on: MOLT-4
NCI-H23 = tested on: NCI-H23
NCI/ADR-RES = tested on: NCI/ADR-RES
SF-268 = tested on: SF-268
HCT-15 = tested on: HCT-15
NCI-H522 = tested on: NCI-H522
SK-MEL-28 = tested on: SK-MEL-28
SK-OV-3 = tested on: SK-OV-3
HT-29 = tested on: HT-29
COLO 205 = tested on: COLO 205
HOP-62 = tested on: HOP-62
HOP-92 = tested on: HOP-92
TK-10 = tested on: TK-10
MDA-N = tested on: MDA-N
OVCAR-3 = tested on: OVCAR-3
HL-60 = tested on: HL-60
NCI-H460 = tested on: NCI-H460
NCI-H226 = tested on: NCI-H226
A549 = tested on: A549
Hs-578T = tested on: Hs-578T
SR = tested on: SR
BT-549 = tested on: BT-549
SK-MEL-2 = tested on: SK-MEL-2
UO-31 = tested on: UO-31
OVCAR-5 = tested on: OVCAR-5
RXF 393 = tested on: RXF 393
K562 = tested on: K562
SW-620 = tested on: SW-620
786-0 = tested on: 786-0
OVCAR-8 = tested on: OVCAR-8
SF-539 = tested on: SF-539
SN12C = tested on: SN12C
OVCAR-4 = tested on: OVCAR-4
DU-145 = tested on: DU-145
CAKI-1 = tested on: CAKI-1
HCC 2998 = tested on: HCC 2998
T47D = tested on: T47D
RPMI-8226 = tested on: RPMI-8226
UACC-257 = tested on: UACC-257
SK-MEL-5 = tested on: SK-MEL-5
EKVX = tested on: EKVX
MCF7 = tested on: MCF7
KM12 = tested on: KM12
A498 = tested on: A498
SNB-19 = tested on: SNB-19
MDA-MB-435 = tested on: MDA-MB-435
MDA-MB-231 = tested on: MDA-MB-231
ACHN = tested on: ACHN
PC-3 = tested on: PC-3
M14 = tested on: M14
Malme-3M = tested on: Malme-3M

Compound: COC(=O)[C@H]1C=C[C@H](OC2OC(COC(C)=O)C(OC(C)=O)C(OC(C)=O)C2OC(C)=O)n2c(=O)n(-c3ccccc3)c(=O)n21 (some centres undefined)
- GI50 (LOX IMVI): 1.84 µM (inactive)
- GI50 (CCRF-CEM): 2.25 µM (inactive)
- GI50 (U-251): 8.75 µM (inactive)
- GI50 (IGROV-1): 4.98 µM (inactive)
- GI50 (SF-295): 13.1 µM (inactive)
- GI50 (SNB-75): 12.1 µM (inactive)
- GI50 (UACC-62): 1.54 µM (inactive)
- GI50 (HCT-116): 2.96 µM (inactive)
- GI50 (MOLT-4): 2.49 µM (inactive)
- GI50 (NCI-H23): 4.99 µM (inactive)
- GI50 (NCI/ADR-RES): 6.07 µM (inactive)
- GI50 (SF-268): 3.67 µM (inactive)
- GI50 (HCT-15): 1.41 µM
- GI50 (NCI-H522): 0.222 µM (active)
- GI50 (SK-MEL-28): 2.49 µM (inactive)
- GI50 (SK-OV-3): 18.4 µM (inactive)
- GI50 (HT-29): 2.61 µM (inactive)
- GI50 (COLO 205): 1.7 µM (inactive)
- GI50 (HOP-62): 8.55 µM (inactive)
- GI50 (HOP-92): 1.78 µM (inactive)
- GI50 (TK-10): 4.8 µM (inactive)
- GI50 (MDA-N): 4.68 µM (inactive)
- GI50 (OVCAR-3): 2.91 µM (inactive)
- GI50 (HL-60): 0.406 µM (active)
- GI50 (NCI-H460): 2.92 µM (inactive)
- GI50 (NCI-H226): 7.06 µM (inactive)
- GI50 (A549): 17.4 µM (inactive)
- GI50 (Hs-578T): 2.38 µM (inactive)
- GI50 (SR): 2.03 µM (inactive)
- GI50 (BT-549): 3.04 µM (inactive)
- GI50 (SK-MEL-2): 12.1 µM (inactive)
- GI50 (UO-31): 2.04 µM (inactive)
- GI50 (OVCAR-5): 9.18 µM (inactive)
- GI50 (RXF 393): 1.82 µM (inactive)
- GI50 (K562): 1.77 µM (inactive)
- GI50 (SW-620): 2.18 µM (inactive)
- GI50 (786-0): 2.45 µM (inactive)
- GI50 (OVCAR-8): 5.78 µM (inactive)
- GI50 (SF-539): 2.09 µM (inactive)
- GI50 (SN12C): 6.52 µM (inactive)
- GI50 (OVCAR-4): 2.87 µM (inactive)
- GI50 (DU-145): 6.08 µM (inactive)
- GI50 (CAKI-1): 0.935 µM (active)
- GI50 (HCC 2998): 2.23 µM (inactive)
- GI50 (T47D): 3.48 µM (inactive)
- GI50 (RPMI-8226): 1.66 µM (inactive)
- GI50 (UACC-257): 7.52 µM (inactive)
- GI50 (SK-MEL-5): 2.12 µM (inactive)
- GI50 (EKVX): 2.59 µM (inactive)
- GI50 (MCF7): 2.42 µM (inactive)
- GI50 (KM12): 11 µM (inactive)
- GI50 (A498): 4.97 µM (inactive)
- GI50 (SNB-19): 16.7 µM (inactive)
- GI50 (MDA-MB-435): 4.38 µM (inactive)
- GI50 (MDA-MB-231): 6.97 µM (inactive)
- GI50 (ACHN): 1.66 µM (inactive)
- GI50 (PC-3): 10.7 µM (inactive)
- GI50 (M14): 2.7 µM (inactive)

Compound: Nc1ccc(-c2nc3ccccc3s2)cc1C#Cc1ccccc1
- GI50 (LOX IMVI): 19 µM (inactive)
- GI50 (CCRF-CEM): 29.2 µM (inactive)
- GI50 (U-251): 20.1 µM (inactive)
- GI50 (IGROV-1): 10.7 µM (inactive)
- GI50 (SF-295): 21.2 µM (inactive)
- GI50 (SNB-75): 25.3 µM (inactive)
- GI50 (UACC-62): 17.9 µM (inactive)
- GI50 (HCT-116): 14.4 µM (inactive)
- GI50 (MOLT-4): 32.5 µM (inactive)
- GI50 (NCI-H23): 20.9 µM (inactive)
- GI50 (NCI/ADR-RES): 21.4 µM (inactive)
- GI50 (SF-268): 21.1 µM (inactive)
- GI50 (HCT-15): 17.9 µM
- GI50 (NCI-H522): 18.9 µM (inactive)
- GI50 (SK-OV-3): 24.3 µM (inactive)
- GI50 (HT-29): 19.6 µM (inactive)
- GI50 (COLO 205): 16.3 µM (inactive)
- GI50 (HOP-62): 14.5 µM (inactive)
- GI50 (HOP-92): 18.8 µM (inactive)
- GI50 (TK-10): 13.9 µM (inactive)
- GI50 (MDA-N): 17.9 µM (inactive)
- GI50 (OVCAR-3): 15.5 µM (inactive)
- GI50 (HL-60): 26.5 µM (inactive)
- GI50 (NCI-H460): 17 µM (inactive)
- GI50 (NCI-H226): 20.1 µM (inactive)
- GI50 (A549): 22.6 µM (inactive)
- GI50 (Hs-578T): 21.5 µM (inactive)
- GI50 (SR): 37.5 µM (inactive)
- GI50 (BT-549): 17.1 µM (inactive)
- GI50 (UO-31): 18.3 µM (inactive)
- GI50 (OVCAR-5): 27.2 µM (inactive)
- GI50 (RXF 393): 17.3 µM (inactive)
- GI50 (K562): 31 µM (inactive)
- GI50 (SW-620): 17.8 µM (inactive)
- GI50 (786-0): 17.7 µM (inactive)
- GI50 (OVCAR-8): 19.8 µM (inactive)
- GI50 (SF-539): 18.2 µM (inactive)
- GI50 (SN12C): 18.8 µM (inactive)
- GI50 (OVCAR-4): 20.6 µM (inactive)
- GI50 (DU-145): 23.8 µM (inactive)
- GI50 (CAKI-1): 15.8 µM (inactive)
- GI50 (T47D): 27 µM (inactive)
- GI50 (RPMI-8226): 20.9 µM (inactive)
- GI50 (UACC-257): 16 µM (inactive)
- GI50 (SK-MEL-5): 17 µM (inactive)
- GI50 (EKVX): 20.7 µM (inactive)
- GI50 (MCF7): 1.59 µM (inactive)
- GI50 (KM12): 16.7 µM (inactive)
- GI50 (A498): 21 µM (inactive)
- GI50 (SNB-19): 22.3 µM (inactive)
- GI50 (MDA-MB-435): 19.1 µM (inactive)
- GI50 (MDA-MB-231): 19.7 µM (inactive)
- GI50 (Malme-3M): 12.2 µM (inactive)
- GI50 (ACHN): 18.8 µM (inactive)
- GI50 (PC-3): 18.5 µM (inactive)
- GI50 (M14): 16.3 µM (inactive)
